Assay [1] deals with T1, HCV polymerase (NS5B) type 1a (Hepatitis C virus genotype 1a, UniProt P26664).
T1 construct: made in house; host or cells: Escherichia coli (by the 'similar method' of the 1b enzyme)
Description: Assay of enzyme (HCV polymerase) inhibitory activity, type 1a enzyme. It counts as biochemical, HCV type 1a (cloned from the blood of patients). The method, boiled down:
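IC50 values derive from radioactivity of newly synthesized RNA with versus without test compound. The enzyme was C-terminally truncated type 1a NS5B, 1.5 μg/ml, run 60 min at 25° C with 3H-UTP-labelled nucleotides.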

Assay [2] deals with T2, HCV polymerase (NS5B) type 1b (Hepatitis C virus genotype 1b, UniProt P26663).
T2 construct: a region encoding NS5B (J Virol 1991 March, 65(3), 1105-13, 544 amino acids after deletion of 47 amino acids on the C-terminal); 6xHis (C); made in house; host or cells: Escherichia coli
Description: Assay of enzyme (HCV polymerase) inhibitory activity, type 1b enzyme. The class given is biochemical, HCV BK strain (type 1b). In a few lines:
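Polymerase activity was followed as radiolabelled UTP incorporation by E. coli-expressed, His-tagged NS5B of HCV type 1b lacking its last 47 residues. Conditions: 2 μM UTP, 50 μM other NTPs, Mg2+ buffer at pH 7.5, 25 °C for 60 min. Inhibition relative to compound-free reactions gave IC50.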

Where [3] appears, read: HCV polymerase inhibitory activity (IC50), 1a, type 1a enzyme 1.5 μg/ml, 25° C., 60 min.
The mark [4] stands for this setting: HCV polymerase inhibitory activity (IC50), 1b, type 1b enzyme 0.5 μg/ml, 25° C., 60 min.
Where [5] appears, read: HCV polymerase inhibitory activity IC50, 1a, type 1a enzyme.
Setting [6] is: HCV polymerase inhibitory activity IC50, 1b, type 1b enzyme.

A word on the IC50: it is the point on the concentration scale where inhibition reaches its midpoint. A low value points to greater potency.

For `CCCc1ccc(S(=O)(=O)N2CCN(c3nc(C)c(C(=O)OC)s3)C[C@@H]2C(=O)NCc2ccc(C(C)C)cc2)cc1` [Example 297, 2-[(R)-3-(4-isopropyl-benzylcarbamoyl)-4-(4-propyl-benzenesulfonyl)-piperazin-1-yl]-4-methyl-thiazole-5-carboxylic acid methyl ester], the IC50 in assay [1] (setting [3]) and in assay [2] (setting [4]) was under 0.1 µM each time.

Consider `Cc1nc(Cl)c2sc(N3CCN(S(=O)(=O)c4ccc(C(F)(F)F)cc4)[C@@H](C(=O)NCc4ccc(OC(F)(F)F)cc4)C3)nc2n1` [Example 927, (R)-4-(7-chloro-5-methyl-thiazolo[4,5-d]pyrimidin-2-yl)-1-(4-trifluoromethyl-benzenesulfonyl)-piperazine-2-carboxylic acid 4-trifluoromethoxy-benzylamide], for which the IC50 in assay [1] (setting [5]) and in assay [2] (setting [6]) was under 0.1 µM throughout.

As for `CCC(F)(F)c1ccc(CNC(=O)[C@H]2CN(C(=O)NCC(=O)O)CCN2S(=O)(=O)c2ccc(OC(F)(F)F)cc2)cc1` [Example 677, {[(R)-3-[4-(1,1-difluoro-propyl)-benzylcarbamoyl]-4-(4-trifluoromethoxy-benzenesulfonyl)-piperazine-1-carbonyl]-amino}-acetic acid], the IC50 in assay [1] (setting [5]) and in assay [2] (setting [6]) was over 1 µM throughout.

Regarding `CC(=O)N1CCN(S(=O)(=O)c2ccc3c(c2)CCCC3)[C@@H](C(=O)NCc2ccc(C(C)C)cc2)C1` [Example 203, (R)-4-acetyl-1-(5,6,7,8-tetrahydro-naphthalene-2-sulfonyl)-piperazine-2-carboxylic acid 4-isopropyl-benzylamide], the IC50 in assay [1] (setting [3]) was 0.1 to 1 µM; in assay [2] (setting [4]), under 0.1 µM.

In the case of `O=C(NCc1ccc(Cl)cc1)[C@H]1CN(c2cnc3cncnc3n2)CCN1S(=O)(=O)c1ccc(OC(F)(F)F)cc1` [Example 629, (R)-4-pteridin-7-yl-1-(4-trifluoromethoxy-benzenesulfonyl)-piperazine-2-carboxylic acid 4-chloro-benzylamide], the IC50 in assay [1] (setting [3]) was 0.1 to 1 µM; in assay [2] (setting [4]), under 0.1 µM.

Take `CCCc1ccc(CNC(=O)[C@H]2CN(c3nc(C)c(C(=O)O)s3)CCN2S(=O)(=O)c2ccc(OC(F)(F)F)c(F)c2)cc1` [Example 509, 2-[(R)-4-(3-fluoro-4-trifluoromethoxy-benzenesulfonyl)-3-(4-propyl-benzylcarbamoyl)-piperazin-1-yl]-4-methyl-thiazole-5-carboxylic acid]: the IC50 in assay [1] (setting [3]) and in assay [2] (setting [4]) was under 0.1 µM throughout.

Take `CCCc1ccc(CNC(=O)[C@H]2CN(c3cnc4cncc(C(=O)O)c4n3)CCN2S(=O)(=O)c2ccc(Cl)cc2)cc1` [Example 845, 2-[(R)-4-(4-chloro-benzenesulfonyl)-3-(4-propyl-benzylcarbamoyl)-piperazin-1-yl]-pyrido[3,4-b]pyrazine-8-carboxylic acid]: the IC50 in assay [1] (setting [5]) and in assay [2] (setting [6]) was under 0.1 µM each time.

Regarding `O=C(NCc1ccc(OC(F)(F)F)cc1)[C@H]1CN(c2nc3nc(Br)ncc3s2)CCN1S(=O)(=O)c1ccc(OC(F)(F)F)cc1` [Example 912, (R)-4-(5-bromo-thiazolo[4,5-d]pyrimidin-2-yl)-1-(4-trifluoromethoxy-benzenesulfonyl)-piperazine-2-carboxylic acid 4-trifluoromethoxy-benzylamide], the IC50 in assay [1] (setting [5]) and in assay [2] (setting [6]) was under 0.1 µM each time.

Consider `CC(=O)N1CCN(S(=O)(=O)c2ccc(C(C)C)cc2)[C@@H](C(=O)NCc2ccc(C(C)C)cc2C)C1` [Example 291, (R)-4-acetyl-1-(4-isopropyl-benzenesulfonyl)-piperazine-2-carboxylic acid 4-isopropyl-2-methyl-benzylamide], for which the IC50 in assay [1] (setting [3]) and in assay [2] (setting [4]) was under 0.1 µM each time.

`Cc1ncc2sc(N3CCN(S(=O)(=O)c4ccc(OC(F)(F)C(F)F)cc4)[C@@H](C(=O)NCc4ccc(OC(F)F)cc4)C3)nc2n1` [Example 1039, (R)-4-(5-methyl-thiazolo[4,5-d]pyrimidin-2-yl)-1-[4-(1,1,2,2-tetrafluoro-ethoxy)-benzenesulfonyl]-piperazine-2-carboxylic acid 4-difluoromethoxy-benzylamide]: the IC50 in assay [1] (setting [5]) and in assay [2] (setting [6]) was under 0.1 µM each time.

On to `CCC(F)(F)c1ccc(CNC(=O)[C@H]2CN(c3ccn4ncnc4n3)CCN2S(=O)(=O)c2ccc(OC(F)(F)F)cc2)cc1` [Example 626, (R)-4-[1,2,4]triazolo[1,5-a]pyrimidin-5-yl-1-(4-trifluoromethoxy-benzenesulfonyl)-piperazine-2-carboxylic acid 4-(1,1-difluoro-propyl)-benzylamide], for which the IC50 in assay [1] (setting [3]) and in assay [2] (setting [4]) was under 0.1 µM each time.

For `CC(C)c1ccc(CNC(=O)[C@H]2CN(C(=O)Cn3ccnn3)CCN2S(=O)(=O)c2ccc(C(F)(F)F)cc2)cc1` [Example 220, (R)-4-(2-[1,2,3]triazol-1-yl-acetyl)-1-(4-trifluoromethyl-benzenesulfonyl)-piperazine-2-carboxylic acid 4-isopropyl-benzylamide], the IC50 in assay [1] (setting [3]) and in assay [2] (setting [4]) was under 0.1 µM throughout.

On to `CCCc1ccc(S(=O)(=O)N2CCN(c3nc(C)c(C(=O)O)s3)C[C@@H]2C(=O)NCc2ccc(C(C)C)cc2)s1` [Example 380, 2-[(R)-3-(4-isopropyl-benzylcarbamoyl)-4-(5-propyl-thiophene-2-sulfonyl)-piperazin-1-yl]-4-methyl-thiazole-5-carboxylic acid], for which the IC50 in assay [1] (setting [3]) and in assay [2] (setting [4]) was under 0.1 µM each time.

As to `CCc1ccc(S(=O)(=O)N2CCN(c3cnc(C(=O)O)cn3)C[C@@H]2C(=O)NCc2ccc(OC(F)(F)F)cc2)cc1` [Example 786, (R)-4-(4-ethyl-benzenesulfonyl)-3-(4-trifluoromethoxy-benzylcarbamoyl)-3,4,5,6-tetrahydro-2H-[1,2′]bipyrazinyl-5′-carboxylic acid], the IC50 in assay [1] (setting [5]) and in assay [2] (setting [6]) was under 0.1 µM throughout.

On to `COc1ccc(S(=O)(=O)N2CCN(C(C)=O)C[C@@H]2C(=O)NCc2ccc(C(C)C)cc2)cc1C#N` [Example 239, (R)-4-acetyl-1-(3-cyano-4-methoxy-benzenesulfonyl)-piperazine-2-carboxylic acid 4-isopropyl-benzylamide], for which the IC50 was over 1 µM in assay [1] (setting [3]) and 0.1 to 1 µM in assay [2] (setting [4]).

For the compound `CN(C)c1ccc(CNC(=O)C2CN(C(=O)CN3CCOCC3)CCN2S(=O)(=O)c2ccc(I)cc2)cc1` (centres unmarked) [Example 104, 1-(4-iodo-benzenesulfonyl)-4-(2-morpholin-4-yl-acetyl)-piperazine-2-carboxylic acid 4-dimethylamino-benzylamide], the IC50 in assay [1] (setting [3]) and in assay [2] (setting [4]) was over 1 µM in each case.

With `CC(C)c1ccc(S(=O)(=O)N2CCN(C(=O)CO)CC2C(=O)NCc2ccc(C(F)(F)F)cc2)cc1` (centres unmarked) [Example 55, 4-(2-hydroxy-acetyl)-1-(4-isopropyl-benzenesulfonyl)-piperazine-2-carboxylic acid 4-trifluoromethyl-benzylamide], the IC50 in assay [1] (setting [3]) and in assay [2] (setting [4]) was over 1 µM in each case.

`CC(C)c1ccc(CNC(=O)[C@H]2CN(c3nc([N+](=O)[O-])n[nH]3)CCN2S(=O)(=O)c2ccc(C(F)(F)F)cc2)cc1` [Example 362, (R)-4-(5-nitro-2H-[1,2,4]triazol-3-yl)-1-(4-trifluoromethyl-benzenesulfonyl)-piperazine-2-carboxylic acid 4-isopropyl-benzylamide]: the IC50 in assay [1] (setting [3]) was over 1 µM; in assay [2] (setting [4]) it was 0.1 to 1 µM.

Regarding `Cc1nc(N2CCN(S(=O)(=O)c3ccc(OC(F)(F)F)cc3)[C@@H](C(=O)NCc3ccc(C(C)C)cc3)C2)sc1C(=O)N[C@H](C)C(=O)O` [Example 369, (R)-2-({2-[(R)-3-(4-isopropyl-benzylcarbamoyl)-4-(4-trifluoromethoxy-benzenesulfonyl)-piperazin-1-yl]-4-methyl-thiazole-5-carbonyl}-amino)-propionic acid], the IC50 in assay [1] (setting [3]) and in assay [2] (setting [4]) was under 0.1 µM each time.

In the case of `O=C(NCc1ccc(OC(F)F)cc1)[C@H]1CN(c2nc3nc(C4CC4)ncc3s2)CCN1S(=O)(=O)c1ccc(C(F)(F)F)cc1` [Example 1023, (R)-4-(5-cyclopropyl-thiazolo[4,5-d]pyrimidin-2-yl)-1-(4-trifluoromethyl-benzenesulfonyl)-piperazine-2-carboxylic acid 4-difluoromethoxy-benzylamide], the IC50 in assay [1] (setting [5]) and in assay [2] (setting [6]) was under 0.1 µM each time.

Regarding `O=C(NCc1ccc(OC(F)(F)F)cc1)[C@H]1CN(c2nc3nc(C4CC4)ncc3s2)CCN1S(=O)(=O)c1ccc(C(F)(F)F)cc1` [Example 983, (R)-4-(5-cyclopropyl-thiazolo[4,5-d]pyrimidin-2-yl)-1-(4-trifluoromethyl-benzenesulfonyl)-piperazine-2-carboxylic acid 4-trifluoromethoxy-benzylamide], the IC50 in assay [1] (setting [5]) and in assay [2] (setting [6]) was under 0.1 µM in each case.

Regarding `CC(=O)N1CCN(S(=O)(=O)c2ccc(C(C)C)cc2)C(C(=O)NCc2ccc(-c3cccc(Cl)c3)cc2)C1` (centres unmarked) [Example 141, 4-acetyl-1-(4-isopropyl-benzenesulfonyl)-piperazine-2-carboxylic acid (3′-chloro-biphenyl-4-ylmethyl)-amide], the IC50 in assay [1] (setting [3]) and in assay [2] (setting [4]) was over 1 µM each time.
